Data on three compounds can be found in patent publication US20240207264A1, “PHARMACEUTICAL COMPOSITIONS COMPRISING INHIBITORS OF THE ANDROGEN RECEPTOR AND USES THEREOF” (ESSA PHARMA INC., priority 2021, published 2024).

Data set [1] deals with LNCaP. Kind of data set: LNCaP prostate cancer xenograft model. In kind it is in vivo. To be noted: LNCaP (AR FL), castrated male mice, 30 mg/kg, Solution, qd24. Here is the method:
(§1) Compound A's activity was measured in a variety of castrate-sensitive and castrate-resistant prostate cancer (CRPC) xenograft models (Table 32).

Data set [2] has as its system VCaP tumors. The data set is described as follows: VCaP prostate cancer xenograft model. In kind it is in vivo, SCID Beige male mice. The note with it: VCaP (amplified AR, some AR-V7), castrated male mice, 15 mg/kg, Solution, qd24.
Data set [3] concerns LNCaP95. Kind of data set: LNCaP95 prostate cancer xenograft model. In kind it is in vivo. The note with it: LNCaP95 (high level AR-V7), castrated male mice, 15 mg/kg, Solution, qd24. Here is the method:
as §1

The test system of data set [4] is HID28. Kind of data set: Enzalutamide resistant patient-derived xenograft (PDX) model HID28. In kind it is in vivo, nude mice. The note with it: HID28 PDX (AR+ PSA+), castrated male mice, 15 mg/kg, Solution, qd28. The procedure: as §1
For example, intact male nude mice were engrafted with HID28 tumor fragments and once tumors reached ˜150 mm^3 the mice were castrated. The mice were enrolled in the experiment once the tumors started to regrow, 10 days post-castration. Compound A was tested in the HID28 PDX model at 60 mg/kg, QD for 28 days using SDD formulation with HPMCAS-H in 0.5% Methocel A4M in water.
Mean tumor volume in castrated nude mice bearing enzalutamide resistant patient-derived xenograft (PDX) model HID28 was measured after oral treatment with solid dispersion composition of Compound A or enzalutamide for 28 days (n=6-7 per group) is shown in FIG. 16B.

In data set [5] the test system is PC-3. Kind of data set: PC-3 prostate cancer xenograft model. In kind it is in vivo. To be noted: PC-3 (non functional AR), intact male mice, 15 mg/kg, Solution, qd28. Here is the method:
as §1

The nature of data set [6]: Amorphous solubility by slow addition from organic stock, UV/scattering detection. Type of data set: physicochemical. The note with it: for solubility: kinetic from dmso stock. An excerpt: Solubility: Generally, the solubility of an amorphous form is higher than that of the corresponding crystal form, due to the lack of crystalline lattice forces in the amorphous state. Solubility of the amorphous form of Compound A was studied by slow addition of the amorphous form from an organic stock solution into the pH 6.5 phosphate-buffered saline (PBS) solution or 0.5% wt simulated intestinal fluid (SIF) in pH 6.5 PBS. When the amorphous solubility is reached, a drug-rich phase forms which typically scatters light (e.g., liquid-liquid phase separation or LLPS), which can be detected by scattering of UV/Visible light and/or by dynamic light scattering (DLS).
No scattering event prior to crystallization was observed.

Data set [7] can be described thus: Gastric-to-intestinal buffer (G-IB) transfer dissolution test. In kind it is physicochemical. To be noted: 0.5% SIF in PBS pH 6.5, dose 150 μgA/mL. The procedure:
Dissolution: The crystalline Compound A and the five SDD compositions (A-E from Example 4) is were tested in a 2-stage dissolution test designed to evaluate dissolution rate as well as inhibition of crystallization on transfer from simulated gastric to simulated intestinal media. Additionally, SDD composition E was also tested with additional HPMCAS-HF powder at a ratio of 1:1 SDD/HPMCAS-HF (SDD composition F).
For the gastric-to-intestinal buffer (G-IB) transfer dissolution test, pH 2 (“gastric”) media was added to each sample at a target dose concentration of 300 μgA/mL. After 30 minutes of exposure to gastric media, concentrated simulated intestinal buffer (TB) is added to reach a final composition of 0.5% SIF in PBS, pH 6.5 at half the dose concentration (150 μgA/mL). The concentration was monitored by U fiber optic probes in situ as well as being assessed by either microcentrifugation (15,800×g) or ultracentrifugation (380,000×g).
The microcentrifuge separates the precipitate (undissolved drug) and total solubilized drug Total solubilized drug consists of three solubilized species: freely solubilized drug (“free drug”), drug associated with bile salt micelles (“micelle bound drug”), and drug in small aggregate roughly 50-300 nm in size (“colloidal drug”). The ultracentrifuge further separates the colloidal drug and the supernatant contains only free drug and micelle bound drug. […]

Structures are written as SMILES.

As for `CNC(=O)c1ccc(N2C(=S)N(c3ccc(C#N)c(C(F)(F)F)c3)C(=O)C2(C)C)cc1F` [Enzalutamide, enzalutamide, reference compound], the “TGI (Tumor Growth Inhibition)” value is on record as more than 100% in data set [1]; 66% in data set [2]; less than 0% in data set [3]; less than 0% in data set [4]; 0% in data set [5].

Regarding `CC(C)(c1ccc(OCc2ccnc(NS(C)(=O)=O)n2)cc1)c1cc(Cl)c(OCCCl)c(C#N)c1` [amorphous form of Compound A, N-(4-((4-(2-(3-chloro-4-(2-chloroethoxy)-5-cyanophenyl)propan-2-yl)phenoxy)methyl)pyrimidin-2-yl)methanesulfonamide], the solubility is more than 25 µg/mL in data set [6] (0.5% wt simulated intestinal fluid (SIF) in pH 6.5 PBS, fassgf or other biorelevant, 0.5% SIF (pH 6.5)) and more than 2.5 µg/mL in data set [6] (pH 6.5 phosphate-buffered saline (PBS), aqueous buffer, pH 6.5 PBS). In addition, the “amorphous solubility relative to crystalline solubility” value in data set [6] (simulated intestinal media) is “at least 20 ×”.

Consider `CC(C)(c1ccc(OCc2ccnc(NS(C)(=O)=O)n2)cc1)c1cc(Cl)c(OCCCl)c(C#N)c1` [Crystalline Compound A, N-(4-((4-(2-(3-chloro-4-(2-chloroethoxy)-5-cyanophenyl)propan-2-yl)phenoxy)methyl)pyrimidin-2-yl)methanesulfonamide], for which the “Concentration, IB (90 min)” value in data set [7] is 7 μgA/mL.
